Test results from patent publication US4098823A, “Monospiroalkyl derivatives of prostaglandins” (Miles Laboratories, Inc., priority 1977, dated 1978).
In brackets after ≈: the same amount, converted by molar mass.

Tests used:
[1] = test system: Blood Pressure and Heart Rate; assay: Effects on Blood Pressure and Heart Rate in the Anesthetized Cat; assay type: in vivo; settings: Felis catus, intravenous, 0.01 to 10.0 mcg/kg, scored only on hypotension, read-out: Test D Activity Value (ED50 mmHg, decrease in blood pressure);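 note: Anesthetized cats given intravenous doses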
Method: The acute effects of test compounds on blood pressure and heart rate were determined in cats of either sex anesthetized with a mixture of pentobarbital sodium (35 mg/kg, i.v.) and barbital sodium (100 mg/kg, i.v.). Cannulas were placed in the trachea to allow adequate spontaneous ventilation, in a femoral artery for blood pressure recording with a strain gage transducer, and in a saphenous vein for drug administration. Heart rate was recorded by means of a cardiotachometer driven by the R wave of the electrocardiogram. After a period of 10 minutes of stable recordings of blood pressure and heart rate, the test compound was administered intravenously at doses increasing from 0.01 to 10.0 mcg/kg, spaced one log and injected at 10 minutes intervals. All doses were injected in a volume of 0.1 ml/kg. Modifications of blood pressure and heart rate induced by the test compound were expressed both in absolute units (mmHg and beats/minutes) and as percent of values recorded immediately before administration of each dose. Biphasic responses were tabulated in the order in which they occur. The direction of the observed changes was also noted (+ for increases and - for decreases).
Activity of compounds in this test was judged only on the basis of the degree of hypotension observed. Thus, the ED50 mmHg (dose decreasing blood pressure by 50 mmHg) was calculated graphically and the compound scored according to the following scale: […]

[2] = test system: rat stomach fundus; assay: Cascade Assay, stomach (smooth muscle stimulant effect); assay type: cell-based; settings: superfused, 50% of maximum (PGE1)
Method: (§1) The smooth muscle stimulant effects of test compounds were determined simultaneously in four different tissues that are known to be reactive to naturally occurring prostaglandins. Segments of rat stomach fundus, rat colon, chick rectum and rabbit aortic strip were obtained as described by: Vane, J. R., Brit. J. Pharmacol., 12: 344 (1957); Regoli, D. and Vane, J. R., Brit. J. Pharmacol., 23: 351 (1964); Mann, M. and West, G. B., Brit. J. Pharmacol., 5: 173 (1950); and Furchgott, R. F. and Bhadrakom, R., J. Pharmacol. Exper. Ther., 108: 129 (1953). One end of each preparation was tied to the bottom of a 10 ml tissue chamber and the other to a force displacement transducer (Grass FT-03) for continuous tension recording. The stomach, colon, and rectum segments were stretched to an initial tension of 1 g, while the aortic strip was subjected to 4 g. All preparations were left undisturbed for 1 hour prior to testing. The chambers were equipped with an external jacket through which water, maintained at 40° C, was circulated. Preparations were arranged one beneath the other in descending order (aorta, stomach, colon and rectum). Provision was made for bathing the four tissues successively so that they were superfused with the same fluid (Gaddum, H. J., Brit. J. Pharmacol., 6: 321 [1953]. The bathing fluid consisted of: Krebs bicarbonate solution aerated with a mixture of 95% O2 and 5% CO2 and warmed at 37° C; atropine sulphate (0.1 mcg/ml), phenoxybenzamine hydrochloride (0.1 mcg/ml), propranolol hydrochloride (3.0 mcg/ml), methysergide maleate (0.2 mcg/ml) and brompheniramine maleate (0.1 mcg/ml) were added to eliminate the possibility of smooth muscle responses being due to stimulation of cholinergic, adrenergic, serotonin or histamine receptors. The fluid was circulated by means of a roller pump and was allowed to drip over the preparations at a rate of 10 ml/minute.
(§2) Test compounds were diluted from stock solutions so as to administer quantities ranging from 0.001 100,000 ng in a volume of 0.5 ml. The compounds were applied by dripping on the uppermost tissue, at intervals of 10 to 20 minutes. Maximal increases in tension after each dose were measured and the results were used to plot dose-response curves. ED50 data (doses necessary to produce a response 50% of maximum) were then calculated graphically for each tissue.
(§3) Activity in each tissue was scored according to the following scale: […]

[3] = test system: rat colon; assay: Cascade Assay, colon (smooth muscle stimulant effect); assay type: cell-based; settings: superfused, 50% of maximum (PGF2α)
Method: as §1, §2, §3

[4] = test system: chick rectum; assay: Cascade Assay, rectum (smooth muscle stimulant effect); assay type: cell-based; settings: superfused, 50% of maximum (PGE1)
Method: as §1, §2, §3

[5] = test system: rabbit aortic strip; assay: Cascade Assay, aorta (smooth muscle stimulant effect); assay type: cell-based; settings: superfused, 50% of maximum (PGA2)
Method: as §1, §2, §3

[6] = test system: Rat Uterus; assay: Effects on the Rat Uterus in Vitro; assay type: cell-based; settings: for EC50: Rattus norvegicus, in vitro, 29° C, response 50% that of carbachol, read-out: Test F Rat Uterus, Activity Value (ED50)
Method: The uterine stimulant effect of test compounds was determined in segments of uterus obtained from rats (140-160 g) pretreated subcutaneously with 1 mg/kg of diethyl-stilbesterol 18 hours before the experiment. The tissues were placed in 10 ml chambers filled with de-Jalon solution at 29° C, were aerated and bubbled with 95% O2 and 5% CO2, and were prepared for isometric recording with force displacement transducers. Preparations were stretched to an initial tension of 1 g and were left undisturbed for 30 minutes. Carbachol (1 mcg/ml) was then added to the bath and a response was recorded. After a 10 minute interval the carbachol procedure was repeated. Responses to increasing concentrations of a test compound (0.001 to 10 mcg/ml with one log intervals) were then recorded every 10 minutes. Preparations were washed four times after each response. All doses of compounds were administered in a 0.1 ml volume. Because it has been observed that the magnitude of the second response to carbachol (approximately 10% greater than the first) is close to the maximal response of the tissue, such value was taken as a measure of the sensitivity of a particular segment. Responses to each concentration of the test compound were expressed in terms of percentage of the second response to carbachol and the ED50 (dose producing a response 50% that of carbachol) was calculated graphically. Activity was scored according to the following scale: […]

[7] = test system: Gastric Secretion; assay: Effects on Gastric Secretion in the Rat; assay type: in vivo; settings: pylorus-ligated rat, subcutaneous, 2 x 1.5 mg/kg (total 3.0 mg/kg), 4 hours
Method: A procedure based on that described by Lipmann (J. Pharm. Pharmacol., 21:335 [1968]) was used to assess the influence of test compounds on gastric secretion. Rats of one sex weighing 150 to 200 g were randomly divided into groups of six animals each and fasted for 48 hours previously to the experiments, water being available adlibitum. The animals were anesthetized with ether, the abdomen was opened through a midline incision and the pylorus was ligated. Test compounds were diluted from stock solution so as to administer a dose of 1.5 mg/kg in a volume equivalent to 1 ml/kg. Subcutaneous injections were applied immediately after surgery and again 2 hours later, so that a total dose of 3.0 mg/kg was administered. Dilutions were made with phosphate buffer (pH 7.38) as recommended by Lee et al. (Prostaglandins 3:29 [1973]), in order to insure adequate stability of drugs at the subcutaneous depot. Each compound was tested in one group of rats; an additional control group received only the vehicle.
Four hours after pyloric ligation the animals were killed with ether, the cardias ligated and the stomachs removed. The volume of gastric secretion was measured and the contents centrifuged at 500 rpm for 10 minutes. Total acid in the supernatant was titrated against a 0.1 N sodium hydroxide solution and the amount expressed in mEq.
Volume and total acid values of the treated group were compared with those of the controls by the "T" test. Antisecretory activity was scored according to the following scale: […]

Row | Compound | EC50 [6] | ED (50 mmHg) [1] | Test E Cascade Assay, Stomach, Activity Value (ED50) [2] | Test E Cascade Assay, Colon, Activity Value (ED50) [3] | Test E Cascade Assay, Rectum, Activity Value (ED50) [4] | Test E Cascade Assay, Aorta, Activity Value (ED50) [5] | Test B Activity Value (% decrease in acidity, inhibition of gastric secretion) [7] | magnitude of second response to carbachol relative to the first ([6]; carbachol 1 mcg/ml, second response greater than the first)
1 | COC(=O)CCCCCC[C@@H]1[C@@H](/C=C/[C@@H](O)C2CC3(CCC3)C2)[C@H](O)C[C@H]1O [TR-4138, Methyl 7-{3R, 5R-dihydroxy-2R-[3S-hydroxy-3-(spirol[3.3]hept-2-yl)-1E-propenyl]cyclopent-1R-yl}heptanoate] | > 10 µg/mL | > 0.01 mg/kg | 0 (>10000) | 0 (>10000) | 0 (>10000) | 0 (>10000) | – | –
2 | O=C1C[C@@H](O)[C@H](/C=C/[C@H](O)C2CC3(CCC3)C2)[C@H]1CCCCCCCO [TR-4713, 7-{3R-hydroxy-5-oxo-2R-[3R-hydroxy-3-(spiro[3.3]hept-2-yl)-1E-propenyl]cyclopent-1R-yl}heptan-1-ol] | > 10 µg/mL | – | 0 (>10000) | 0 (>10000) | 1 (1001 - 10000) | 0 (>10000) | 4 (76-100) | –
3 | C[N+](C)(C)CCOC(N)=O [carbachol, reference compound] | – | – | – | – | – | – | – | approximately 10%
4 | CC1([C@H](O)/C=C/[C@H]2[C@H](O)CC(=O)[C@@H]2CCCCCCCO)CC2(CCC2)C1 [TR-4852, 7-{3R-hydroxy-5-oxo-2R-[3R-hydroxy-3-(2-methylspiro[3.3]hept-2-yl)-1E-propenyl]cyclopent-1R-yl}heptan-1-ol] | 0.101 to 1 µg/mL (≈ 0.267 to 2.64 µM) | – | 0 (>10000) | 0 (>10000) | 0 (>10000) | 0 (>10000) | 2 (26-50, significant) | –
5 | COC(=O)CCCCCC[C@H]1C(=O)C[C@@H](O)[C@@H]1/C=C/[C@H](O)C1(C)CC2(CCC2)C1 [TR-4842, Methyl 7-{3R-hydroxy-5-oxo-2R-[3S-hydroxy-3-(2-methylspiro[3.3]hept-2-yl)-1E-propenyl]cyclopent-1R-yl}heptanoate] | > 10 µg/mL | – | 0 (>10000) | 0 (>10000) | 0 (>10000) | 0 (>10000) | 0 (<26) | –
6 | CC1([C@@H](O)/C=C/[C@H]2[C@H](O)CC(=O)[C@@H]2CCCCCCCO)CC2(CCC2)C1 [TR-4841, 7-{3R-hydroxy-5-oxo-2R-[3S-hydroxy-3-(2-methylspiro[3.3]hept-2-yl)-1E-propenyl]cyclopent-1R-yl}heptan-1-ol] | > 10 µg/mL | – | 0 (>10000) | 0 (>10000) | 0 (>10000) | 0 (>10000) | 0 (<26) | –

Now from value to compound, other results behind:

Row | EC50 [6] | Compound | ED (50 mmHg) [1] | Test E Cascade Assay, Stomach, Activity Value (ED50) [2] | Test E Cascade Assay, Colon, Activity Value (ED50) [3] | Test E Cascade Assay, Rectum, Activity Value (ED50) [4] | Test E Cascade Assay, Aorta, Activity Value (ED50) [5] | Test B Activity Value (% decrease in acidity, inhibition of gastric secretion) [7] | magnitude of second response to carbachol relative to the first ([6]; carbachol 1 mcg/ml, second response greater than the first)
7 | > 10 µg/mL | CCOC(=O)CCC/C=C\C[C@H]1C(=O)C[C@@H](O)[C@@H]1/C=C/[C@H](O)C1CC2(CCC2)C1 [TR-4726, Ethyl 7-{3R-hydroxy-5-oxo-2R-[3R-hydroxy-3-(spiro[3.3]hept-2-yl)-1E-propenyl]cyclopent-1R-yl}hept-5Z-enoate] | – | 0 (>10000) | 0 (>10000) | 0 (>10000) | 0 (>10000) | 0 (<26) | –
8 | > 10 µg/mL | COC(=O)CCC/C=C\C[C@H]1C(=O)CCC[C@@H]1/C=C/[C@H](O)C1CC2(CCC2)C1 (relative stereo) [TR-4759, dl Methyl-7-{6-oxo-2R-[3R-hydroxy-3-(spiro[3.3]hept-2-yl)-1E-propenyl]cyclohex-1R-yl}hept-5Z-enoate] | – | 0 (>10000) | 0 (>10000) | 0 (>10000) | 0 (>10000) | 0 (<26) | –
9 | > 10 µg/mL | COC(=O)CCC/C=C\C[C@H]1C(=O)CCC[C@@H]1/C=C/[C@@H](O)C1CC2(CCC2)C1 (relative stereo) [TR-4758, dl Methyl-7-{6-ozo-2R-∂3S-hydroxy-3-(spiro[3.3]hept-2-yl)-1E-propenyl]cyclohex-1R-yl}hept-5Z-enoate] | – | 0 (>10000) | 0 (>10000) | 0 (>10000) | 0 (>10000) | 0 (<26) | –
10 | > 10 µg/mL | CCOC(=O)CCC/C=C\C[C@H]1C(=O)C[C@@H](O)[C@@H]1/C=C/[C@@H](O)C1CC2(CCC2)C1 [TR-4727, Ethyl 7-{3R-hydroxy-5-oxo-2R-[3S-hydroxy-3-(spiro[3.3]hept-2-yl)-1E-propenyl]cyclopent-1R-yl}hept-5Z-enoate] | – | 0 (>10000) | 0 (>10000) | 0 (>10000) | 0 (>10000) | 0 (<26) | –
